Experimental data reported in patent US20250345309A1, “IMMUNE HEALTH IMPROVERS” (Amazentis SA, priority 2024, published 2025).

Experiments:
[1] = human, in vivo
[2] = system: PBMCs; test: Mitochondrial analysis of PBMCs (Mitotracker Green, MitotrackerRedCMXROS, PGC-1α, Parkin); format: in vivo, human
Protocol: PBMCs were thawed as depicted above and cultured in T cell medium (RPMI (ThermoFisher Scientific) 10% FBS (South America origin), 10 mM Hepes (Sigma), 1× Non-Essential Amino Acid, 1 mM Sodium Pyruvate, 50 μM β-Mercaptoethanol, 100 U/ml penicillin, 100 μg/ml streptomycin and 2 mM Glutamax (ThermoFisher Scientific)) overnight. After washing, cells were reconstituted in T cell medium containing respective staining agent: for labelling of mitochondrial mass, Mitotracker Green (Invitrogen) was used at a concentration of 40 nM for 30 mins at 37° C. Mitochondrial membrane potential was assessed via MitotrackerRedCMXROS. Cells were then stained with a combination of CD3 vFlour 450, PE-Cy7 CD4, APC-Cy7 CD8, CCR7 APC, CD45RA FITC and Ghost Violet510. To assess expression of peroxisome proliferator-activated receptor gamma coactivator 1-alpha (PGC-1α), cells were rested for four hours after thawing, then stained with the panel above for 15 mins at 4° C. After washing in FACS buffer, cells were permeabilized and fixed using the eBioscience™ Foxp3/Transcription Factor Staining Buffer Set, followed by staining with PGC-1α (sc-518025; D-5; Santa Cruz) antibody. To assess the expression of Parkin, cells were first stained with CD4 BV786, CD8 PECF 594, CD3 BUV 395, CD45RA FITC, CD14 eF450 and live/dead 780, followed by permeabilization and fixation with transcription factor buffer set kit (BD Biosciences). For mitochondrial analysis, cells were finally fixed in 1% PFA and analyzed on a Cytek Aurora cytometer. Samples were unmixed using reference controls generated in combination with stained Ultracomp beads (Fisher Scientific, 01-2222-41).

[3] = system: monocytes; test: Phagocytosis assay (pHrodo E. coli Red BioParticles); format: in vivo, human; settings: ex vivo, d28, 1000 mg/day oral, compared with placebo cohort
Protocol: The pHrodo™ E. coli Red BioParticles® Phagocytosis Kit for Flow Cytometry (Invitrogen) was used to assess phagocytotic capacity of monocytes. The particles were inactivated, unopsonized Escherichia coli (K-12 strain) that enables measurement of phagocytic activity based on acidification of particles as they are ingested. Thawed PBMCs were immediately used for analysis. 25 μL of E. coli Red BioParticles® were added to 0.25×10^6 PBMCs in 225 μl PBMC medium. As a negative control, 20 μL of PBS were added to 225 μl of PBMCs. Incubation was performed at 37° C. for 45 min, followed by immediate transfer on ice. Cells were then washed in FACS buffer, centrifuged at 1500 rpm for 5 min, followed by another wash step. Cells were stained for 10 min at 4° C. After washing, cells were reconstituted in PBS and subjected to analysis using a Cytek Aurora fow cytometer. Monocytes were identified as CD3−, CD16+ cells.

[4] = system: PBMCs; test: Single cell RNA sequencing of PBMCs; format: in vivo, human
[5] = system: PBMCs; test: SCENITH mitochondrial dependency analysis of immune populations; format: in vivo, human; settings: d28, 1000 mg/day oral
Protocol: Single cell energetic metabolism by profiling translation inhibition (SCENITH) was used to determine metabolic dependencies of select immune populations, which was performed as described previously (R. J. Argüello et al. Cell metabolism […], 32, 1063-1075). SCENITH reagents kit (inhibitors, puromycin and antibodies) were obtained from www.scenith.com/try-it and used according to the provided protocol. In short, 0.3×10^6 PBMCs were treated for 15 min with Control (DMSO), 2-Deoxy-Glucose (2-DG; 100 mM), Oligomycin (O; 1 μM) and the combination of 2DG and Oligomycin (DGO) or Harringtonine (H; 2 μg/mL). Following metabolic inhibitors, Puromycin (final concentration 10 μg/mL) was added to cultures for 30 min. After puromycin treatment, cells were washed in PBMC was buffer and stained with the following antibodies for 15 min at 4° C.: PE-Cy7 CD4, APC Cy7 CD8, CD45RA AF700, vFkour 450 CD3, CCR7 APC, BV786 CD14 PercP5.5 CD19, PE-CF594 CD16; CD56 BV711, BV510 Viability dye.
Cells were fixed and permeabilized using the Foxp3 intracellular staining kit (Invitrogen eBioscience) for 1 h. Intracellular staining of puromycin and protein targets was performed for 1 h in diluted (10×) permeabilization buffer at 4° C. Finally, data acquisition was performed using the Cytek Aurora flow cytometer. Samples were unmixed using reference controls generated in combination with stained Ultracomp beads (Fisher Scientific, 01-2222-41) using the SpectroFlo Software. The unmixed FCS files were used for data processing and analysis using FlowJo (BD, version 10.8.1). Immune cell populations of interest were gated manually for downstream analysis. gMFI expression values for Puromycin were exported from FlowJo to calculate metabolic dependencies. The following calculations were used:
To further characterize the metabolic profile of immune cells on a single-cell resolution, we employed SCENITH, a flow-cytometry based strategy that uses incorporation of Puromycin to infer metabolic dependencies (see Argüello et al., SCENITH: A flow cytometry-based method to functionally profile energy metabolism with single cell resolution, 2020, Cell Metabolism, 32, 1063-1075).

[6] = after 28 days, 1000 mg/day oral
[7] = after 28 days of UA compared to placebo

Compound: O=c1oc2cc(O)ccc2c2ccc(O)cc12 [Urolithin A]
- Intensity of adverse events noted during the study [1]: all mild
- Mitochondrial content in several CD8+ subsets (TN, TEM, TCM, TEFF) [2, 6]: Increased
- Mitochondrial content of CD4+ cells [2, 6]: no significant change
- Mitochondrial mass: proportion of MTGHi cells in CD8+ cells ([2]; after 28 days, 1000 mg/day oral, absent in placebo): increased
- PGC-1α expression in CD8+ cells ([2]; after intervention period (d28), 1000 mg/day oral, no change with placebo): stronger expression
- Mitochondrial membrane potential (MMP) in CD8+ cells ([2]; d28, 1000 mg/day oral): significantly lower
- PGC-1α in CD4+ cells ([2]; d28, 1000 mg/day oral): no significant induction
- Reduction of MMP in CD4+ cells ([2]; d28, 1000 mg/day oral): absent
- Reduction of MMP in CD8 subsets ([2]; d28, 1000 mg/day oral): retained
- Parkin protein expression ([2]; study visits at seven days or 28 days, 1000 mg/day oral): Change in Parkin protein expression was detected
- Monocyte phagocytosis of E. coli particles [3]: significantly enhanced
- Activation markers CD69 and CXCR4 in NK cells ([4]; after 28 days of UA): reduction
- Electron transport chain components (MT-ND5, MT-CO1, MT-CO2) in naïve T cells ([4]; after 28 days of UA): induced
- Immediate-early genes (NR4A2, DUSP1, FOS, JUN, NFKBIA) in NK cells ([4]; after 28 days of UA): reduction
- Inflammatory gene signature (MX1, XAF1, ISG15, TNSF10) in B cells ([4]; after 28 days of UA): downregulated
- Interferon response pathway genes (IFITM2, IER2, STAT1) in monocytes ([4]; after 28 days of UA): Strongest downregulation
- Mitochondrial genes (MT-CYB, MT-ND5, MT-ATP8, MT-CO1) and NAMPT in monocytes ([4]; after 28 days of UA): strong upregulation
- Protein Kinase A (PKA) signaling and other immune inhibitory pathways, CD8+ T cells ([4]; after 28 days of UA): strongly inhibited
- T cell receptor (TCR) signaling, canonical pathway analysis, CD8+ T cells ([4]; after 28 days of UA): activation
- cAMP-responsive element modulator (CREM) in CD8+ TEM subset ([4]; after 28 days of UA): downregulation
- Differentially expressed genes in CD8+ T cells, down [4, 7]: 37 genes
- Differentially expressed genes in CD8+ T cells, up [4, 7]: 52 genes
- Genes associated with T cell exhaustion, suppression and hypofunction (NR4A2, CREM, TGFB1, METRNL) in CD8+ T cells [4, 7]: downregulated
- IL7R in CD8+ T cells [4, 7]: induction
- Wnt-associated stemness transcription factors TCF7 and LEF1 in CD8+ T cells [4, 7]: upregulation
- Differentially expressed genes in CD8+ T cells, total ([4]; after 28 days of UA compared to placebo, five participants): 89 genes
- Capacity to shift to OXPHOS when deprived of glycolysis ([5]; CD8+ cells): stronger capacity
- Dependence on glucose metabolism ([5]; CD8+ cells): less dependence
- Mitochondrial capacity in CD8+ subsets TN, TEM, TCM, TEEF [5]: potentiation
- Mitochondrial capacity in total CD8+ cells [5]: potentiates
